We go through 26 compounds from US20230391786A1, “cGAS INHIBITORS” (Eli Lilly and Company, priority 2022, published 2023).

The test system of assay [1] is cGAS activity in THP1 cells (IFNb as marker). Description: Cellular assay to measure cGAS activity (IFNb production in PMA-differentiated THP1 cells stimulated by RDG-Adenovirus-GFP). The assay is classed as cell-based, human. How it is done: Cellular assay to measure cGAS activity: Use THP1 cell line from ATCC to determine inhibition of cGAS activity by test compounds in human cells. Plate cells on 96-well plates at 0.2×10^6/well and differentiate with phorbol myristate acetate (PMA) at 37° C./5% CO2. After 24 hours, replace PMA containing media with media lacking PMA and further incubate overnight. Stimulate cells were then by RDG-Adenovirus-GFP (Vector Biolabs #1768) at 1000 MOI for 4 hours prior to the addition of test compounds. After overnight incubation, transfer 10 μL of the media from each well to a new plate for IFNb analysis as a marker for cGAS activity. Measure quantification of IFNb with an IFNb AlphaLISA Detection kit (Perkin Elmer AL3133F) by mixing the acceptor beads with the cell supernatant followed by the addition of the biotinylated antibody and donor beads. Measure the relative fluorescence signal produced from the interaction of the donor and acceptor beads by a PHERAStar AlphaLISA protocol and evaluate the inhibitory effect of a compound by plotting specific inhibition of IFNb production against log concentration of the test compound. Calculate IC50 values using a 4-parameter non-linear logistic equation (y=(S0+((SInf−S0)/(1+((qAC50/x)^nHill))))).

Another assay addresses recombinant human cGAS (Homo sapiens (Human), UniProt Q8N884). Description: In vitro inhibition assay of cGAS activity (cGAMP production, RapidFire mass spectrometry). Conditions: 10 nM recombinant human cGAS, 60 nM 75-bp dsDNA, ATP, GTP, room temperature 3 hours, read-out: IC50 (μM), In vitro inhibition assay for Compounds 95-348. Format: biochemical. The procedure, abridged:
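Full-length His6-tagged human cGAS (10 nM, E. coli-expressed) was incubated 3 h at room temperature with 60 nM 75-bp dsDNA, ATP, 50 μM GTP and compound at pH 7.5 with 5 mM MgCl2. cGAMP formation was measured by RapidFire mass spectrometry, and IC50 was taken from a 4-parameter logistic fit.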

The mark [2] stands for this setting: Homo sapiens, THP-1, THP1 cells, PMA differentiated, RDG-Adenovirus-GFP 1000 MOI, IFNb AlphaLISA, overnight incubation, read-out: IC50 (μM), Cellular assay for Compounds 95-348.

As a reminder, the IC50 is the concentration needed to halve the response being measured.

Where a name gives a salt, the structure may show the parent alone. Read-outs that look alike come from different tables or passages of the source.

recombinant human cGAS, sequence (Q8N884 whole entry): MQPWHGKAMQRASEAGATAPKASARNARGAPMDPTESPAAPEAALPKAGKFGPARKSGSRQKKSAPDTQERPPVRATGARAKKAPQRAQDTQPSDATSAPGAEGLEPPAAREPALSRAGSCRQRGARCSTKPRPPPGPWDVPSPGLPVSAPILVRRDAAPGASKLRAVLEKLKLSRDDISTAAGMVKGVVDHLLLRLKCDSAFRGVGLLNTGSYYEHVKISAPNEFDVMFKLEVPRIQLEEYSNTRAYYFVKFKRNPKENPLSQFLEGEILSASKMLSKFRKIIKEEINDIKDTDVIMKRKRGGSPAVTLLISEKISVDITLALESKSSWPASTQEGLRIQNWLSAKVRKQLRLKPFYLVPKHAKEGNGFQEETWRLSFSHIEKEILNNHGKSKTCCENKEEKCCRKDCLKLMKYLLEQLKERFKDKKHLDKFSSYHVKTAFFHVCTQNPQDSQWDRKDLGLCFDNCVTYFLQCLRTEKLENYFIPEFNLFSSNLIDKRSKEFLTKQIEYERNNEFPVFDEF

`O=C(Nc1cc(Cl)c(Cl)c2c1c(-c1cn[nH]c1)c1n2CCN(C(=O)CN2CCOC2=O)C1)C(F)F` [Example 274, N-[6,7-Dichloro-2-[2-(2-oxooxazolidin-3-yl)acetyl]-10-(1H-pyrazol-4-yl)-3,4-dihydro-1H-pyrazino[1,2-a]indol-9-yl]-2,2-difluoro-acetamide]: the IC50 in assay [1] (setting [2]) was found to be 3.55 µM; on recombinant human cGAS, 0.023 µM.
Turning to `O=C(CF)Nc1cc(Cl)c(Cl)c2[nH]cc(-c3cn[nH]c3)c12` [Example 170, N-(6,7-Dichloro-3-(1H-pyrazol-4-yl)-1H-indol-4-yl)-2-fluoroacetamide], the IC50 in assay [1] (Homo sapiens, THP-1, read-out: IC50 (μM), Cellular assay for Compounds 95-348) is 0.129 µM; on recombinant human cGAS it was 0.00567 µM.
Take `CC(=O)Nc1cc(Cl)c(Cl)c2[nH]c(CNC(=O)CO)c(-c3cn[nH]c3)c12` [Example 222, N-[[4-Acetamido-6,7-dichloro-3-(1H-pyrazol-4-yl)-1H-indol-2-yl]methyl]-2-hydroxy-acetamide]: the half-maximal inhibitory concentration (IC50) in assay [1] (setting [2]) is greater than 10 µM; at recombinant human cGAS it was 0.0927 µM.
On to `NC1(C(=O)N2CCn3c(c(-c4cn[nH]c4)c4ccc(Cl)c(Cl)c43)C2)CCOCC1` [Example 147, (4-Aminotetrahydro-2H-pyran-4-yl)(6,7-dichloro-10-(1H-pyrazol-4-yl)-3,4-dihydropyrazino[1,2-a]indol-2(1H)-yl)methanone], for which the IC50 in assay [1] (setting [2]) was determined as 4.63 µM; at recombinant human cGAS, 0.0474 µM.
In the case of `OC/C=C/CNc1cc(Cl)c(Cl)c2[nH]cc(-c3cn[nH]c3)c12` [Example 121, (E)-4-((6,7-Dichloro-3-(1H-pyrazol-4-yl)-1H-indol-4-yl)amino)but-2-en-1-ol], the figures for the IC50 (in assay [1] (setting [2]); at recombinant human cGAS) were 2.99 µM and 0.0652 µM, respectively.
As to `COc1cc2c(-c3cn[nH]c3)cn(-c3cn(CCO)nn3)c2cc1Cl` [Example 152, 2-[4-[6-Chloro-5-methoxy-3-(1H-pyrazol-4-yl)indol-1-yl]triazol-1-yl]ethanol], the IC50 in assay [1] (setting [2]) amounted to 1.4 µM; on recombinant human cGAS it was 0.0142 µM.
In the same order, the values of `CC(=O)NC1CCCn2c1c(-c1cn[nH]c1)c1ccc(Cl)c(Cl)c12` (stereo not shown) [Example 116, N-(3,4-Dichloro-10-(1H-pyrazol-4-yl)-6,7,8,9-tetrahydropyrido[1,2-a]indol-9-yl)acetamide] are 5.23 µM and 0.0217 µM.
The matching figures for `O=C(Nc1cc(Cl)c(Cl)c2[nH]cc(-c3cn[nH]c3)c12)C(O)CO` (stereo not shown) [Example 185, N-[6,7-Dichloro-3-(1H-pyrazol-4-yl)-1H-indol-4-yl]-2,3-dihydroxy-propanamide]: 3.44 µM and 0.077 µM.
The matching figures for `Clc1ccc2c(-c3cn[nH]c3)c(-c3nnco3)[nH]c2c1Cl` [Example 156, 2-[6,7-Dichloro-3-(1H-pyrazol-4-yl)-1H-indol-2-yl]-1,3,4-oxadiazole]: 0.464 µM and 0.0405 µM.
For `CC(=O)NC1CCc2c(-c3cn[nH]c3)c3c(OCC#N)cc(Cl)c(Cl)c3n2C1` (stereo not shown) [Example 102, N-[3,4-Dichloro-1-(cyanomethoxy)-10-(1H-pyrazol-4-yl)-6,7,8,9-tetrahydropyrido[1,2-a]indol-7-yl]acetamide], the IC50 in assay [1] (setting [2]) amounted to 1.28 µM; on recombinant human cGAS it was 0.0166 µM.
In the same order, the values of `CC(=O)N1CCn2c(c(-c3cn[nH]c3)c3c(NC(=O)CO)cc(Cl)c(Cl)c32)C1` [Example 146, N-(2-Acetyl-6,7-dichloro-10-(1H-pyrazol-4-yl)-1,2,3,4-tetrahydropyrazino[1,2-a]indol-9-yl)-2-hydroxyacetamide] are greater than 10 µM and 0.0918 µM.
The matching figures for `O=C(NCc1[nH]c2c(Cl)c(Cl)ccc2c1-c1cn[nH]c1)c1nnco1` [Example 165, N-[[6,7-Dichloro-3-(1H-pyrazol-4-yl)-1H-indol-2-yl]methyl]-1,3,4-oxadiazole-2-carboxamide]: 1.32 µM and 0.0894 µM.
Consider `Sc1nnc(-c2[nH]c3c(Cl)c(Cl)ccc3c2-c2cn[nH]c2)[nH]1` [Example 159, 5-[6,7-Dichloro-3-(1H-pyrazol-4-yl)-1H-indol-2-yl]-4H-1,2,4-triazole-3-thiol], for which the values for the IC50 (in assay [1] (setting [2]); at recombinant human cGAS) were greater than 10 µM and 0.019 µM, respectively.
The matching figures for `CN1CCOC(C(=O)N2CCn3c(c(-c4cn[nH]c4)c4c(OCC#N)cc(Cl)c(Cl)c43)C2)C1` (stereo not shown) [Example 294, 2-((6,7-Dichloro-2-(4-methylmorpholine-2-carbonyl)-10-(1H-pyrazol-4-yl)-1,2,3,4-tetrahydropyrazino[1,2-a]indol-9-yl)oxy)acetonitrile]: 0.366 µM and 0.0479 µM.
For the compound `Cc1nnc(N2CCn3c(c(-c4cn[nH]c4)c4c(OCC#N)cc(Cl)c(Cl)c43)C2)s1` [Example 203, 2-((6,7-Dichloro-2-(5-methyl-1,3,4-thiadiazol-2-yl)-10-(1H-pyrazol-4-yl)-1,2,3,4-tetrahydropyrazino[1,2-a]indol-9-yl)oxy)acetonitrile], the figures for the IC50 (in assay [1] (setting [2]); at recombinant human cGAS) were 0.374 µM and 0.00677 µM, respectively.
For `FC(F)COc1cc(Cl)c(Cl)c2[nH]cc(-c3cn[nH]c3)c12` [Example 184, 6,7-Dichloro-4-(2,2-difluoroethoxy)-3-(1H-pyrazol-4-yl)-1H-indole], the IC50 in assay [1] (setting [2]) worked out at 1.13 µM; at recombinant human cGAS it was 0.0385 µM.
The matching figures for `CCNc1cc(Cl)c(Cl)c2c1c(-c1cn[nH]c1)c1n2CCN(C)C1=O` [Example 149, 6,7-Dichloro-9-(ethylamino)-2-methyl-10-(1H-pyrazol-4-yl)-3,4-dihydropyrazino[1,2-a]indol-1-one hydrochloride]: 6.05 µM and 0.0442 µM.
Consider `O=C1NCC(C(=O)N2CCn3c(c(-c4cn[nH]c4)c4ccc(Cl)c(Cl)c43)C2)O1` (single isomer, unassigned) [Example 259, 5-[6,7-Dichloro-10-(1H-pyrazol-4-yl)-3,4-dihydro-1H-pyrazino[1,2-a]indole-2-carbonyl]oxazolidin-2-one], for which the IC50 in assay [1] (THP1 cells, PMA differentiated, RDG-Adenovirus-GFP 1000 MOI, IFNb AlphaLISA, overnight incubation, read-out: IC50 (μM), Cellular assay for Compounds 95-348) came out at 0.765 µM; at recombinant human cGAS it was 0.0373 µM.
`O=C(CO)NC1CCc2c(-c3cn[nH]c3)c3ccc(Cl)c(Cl)c3n2C1` (stereo not shown) [Example 95, N-[3,4-Dichloro-10-(1H-pyrazol-4-yl)-6,7,8,9-tetrahydropyrido[1,2-a]indol-7-yl]-2-hydroxy-acetamide]: the IC50 in assay [1] (setting [2]) is 2.06 µM; on recombinant human cGAS it was 0.0159 µM.
In the same order, the values of `CN1CCOC[C@H]1CC(=O)N1CCn2c(c(-c3cn[nH]c3)c3c(OCC#N)cc(Cl)c(Cl)c32)C1` [Example 115, (R)-2-((6,7-Dichloro-2-(2-(4-methylmorpholin-3-yl)acetyl)-10-(1H-pyrazol-4-yl)-1,2,3,4-tetrahydropyrazino[1,2-a]indol-9-yl)oxy)acetonitrile] are 1.12 µM and 0.0288 µM.
The matching figures for `FC(F)CNc1cc(Cl)c(Cl)c2[nH]cc(-c3cn[nH]c3)c12` [Example 122, 6,7-Dichloro-N-(2,2-difluoroethyl)-3-(1H-pyrazol-4-yl)-1H-indol-4-amine]: 0.88 µM and 0.0137 µM.
Regarding `F[C@H]1C[C@@H](Oc2cc(Cl)c(Cl)c3[nH]cc(-c4cn[nH]c4)c23)C1` [Example 126, 6,7-Dichloro-4-(cis-3-fluorocyclobutoxy)-3-(1H-pyrazol-4-yl)-1H-indole], the IC50 in assay [1] (setting [2]) is 1.45 µM; at recombinant human cGAS it was 0.0358 µM.
In the case of `CC(=O)N[C@H]1CCn2c1c(-c1cn[nH]c1)c1c(OCC#N)cc(Cl)c(Cl)c12` [Example 232, (S)—N-(5,6-Dichloro-8-(cyanomethoxy)-9-(1H-pyrazol-4-yl)-2,3-dihydro-1H-pyrrolo[1,2-a]indol-1-yl)acetamide], the IC50 is 0.668 µM in assay [1] (setting [2]) and 0.00376 µM on recombinant human cGAS.
In the case of `CS(=O)(=O)NC1Cc2c(-c3cn[nH]c3)c3ccc(Cl)c(Cl)c3n2C1` (stereo not shown) [Example 246, N-(5,6-Dichloro-9-(1H-pyrazol-4-yl)-2,3-dihydro-1H-pyrrolo[1,2-a]indol-2-yl)methanesulfonamide], the 50% inhibitory concentration (IC50) in assay [1] (setting [2]) amounted to 9.23 µM; at recombinant human cGAS, 0.0313 µM.
On to `CN1CC(C(=O)N2CCn3c(c(-c4cn[nH]c4)c4c(OCC#N)cc(Cl)c(Cl)c43)C2)CC1=O` (stereo not shown) [Example 291, 2-((6,7-Dichloro-2-(1-methyl-5-oxopyrrolidine-3-carbonyl)-10-(1H-pyrazol-4-yl)-1,2,3,4-tetrahydropyrazino[1,2-a]indol-9-yl)oxy)acetonitrile], for which the IC50 is 4.91 µM in assay [1] (setting [2]) and 0.0325 µM at recombinant human cGAS.
The matching figures for `FC(F)CCNc1cc(Cl)c(Cl)c2[nH]cc(-c3cn[nH]c3)c12` [Example 188, 6,7-Dichloro-N-(3,3-difluoropropyl)-3-(1H-pyrazol-4-yl)-1H-indol-4-amine]: 2.45 µM and 0.0541 µM.
